The values that follow come from patent US9963485B2, “Cycloheptapeptide agents for treatment of cancer and obesity diseases” (Hong Kong Baptist University, priority 2012, dated 2018).

Data set [1] relates to melanoma cancer cell line (A375). Briefly: Hollow fiber in vivo test, A375. More on the design: species or system mouse. Conditions: 2.0 mg/kg. The procedure: (§1) Hollow fiber tests are well known in the art for providing preliminary indications of therapeutic efficacy (Mi et al. J. Nat. Prod. 2002, 65: 842-850). In hollow fiber tests, human tumor cell lines currently employed in cell cultures are grown inside semipermeable hollow fibers to form heterogeneous solid tumor models. […] By evaluating the test compound's inhibition of tumor cell growth versus the toxic response in the host, a preliminary estimate of therapeutic efficacy is provided in a cost- and time effective manner.

Data set [2] concerns lung (A549) carcinoma cell line. Briefly: cells. It counts as cell-based, human. Conditions: for IC50: 72 hours, read-out: Cytotoxic activity IC50, A549; for IC90: read-out: Cytotoxic activity IC90, A549.
Experimental: (§4) Pure compounds are evaluated against the human cancer cell lines comprising our cytotoxicity screening panel. Cytotoxicity assays involving oral epidermoid (KB), colon (HCT116), prostate (LNCaP), breast (MCF7), Hela (cervical), leukemia (HL-60) melanoma (A375) and lung (A549) carcinoma cell lines, are performed using sulforhodamine B according to established protocols (Zhang et al., Journal of Medicinal Chemistry 2006; 49: 693-708; and Jutiviboonsuk A et al., Phytochemistry 2005; 66: 2745-2751.). KB and A375 cells are maintained in DMEM (Dulbecco's modified Eagle medium) medium. LNCaP and HL60 cells are maintained in RPMI1640 medium with hormone-free 10% heat-activated FBS (fetal bovine serum) supplemented with 0.1 nM testosterone. MCF7 and Hela cells are maintained and assayed in MEME (Minimum Essential Medium Eagle) medium containing 10 mg/L of insulin. HCT116 cells are maintained in McCoy's 5A medium supplemented with 10% fetal bovine serum. A549 cells are maintained in RPMI-1640 medium supplemented with 10% FCS. Serial dilutions of the compounds are prepared using 10% aqueous DMSO as solvent. The 190 μL cell suspension (3×10^4 cells in 1 ml media) is incubated with 10 μL sample solutions, in triplicate, in 96-well tissue culture plate at 37° C. in a humidified atmosphere of 5% CO2 in air for 72 hours. 10 μL 10% aqueous DMSO is used as control group. Then the cells are fixed to plastic substratum by the addition of 100 μL cold 20% aqueous trichloroacetic acid and washing with water after incubation at 4° C. for 30 min. After staining cells with 100 μL of 0.4% sulforhodamine B in 1% aqueous AcOH for 30 min, unbound dye is removed by rinsing with 1% aqueous AcOH. The bound dye is solubilized with 200 μL 10 mM unbuffered Tris base, pH 10, and the optical density is measured at 515 nm using an ELISA plate reader. The average data are expressed as a percentage, relative to the control. The IC50 values, the dose that inhibit cell growth by 50%, are calculated using nonlinear regression analysis (percent survival versus concentration).
The subject of data set [3] is oral epidermoid (KB) carcinoma cell line. The data set can be described thus: Cytotoxicity assay (sulforhodamine B), KB. It counts as cell-based, human. Particulars: KB cells; for IC50: 72 hours, read-out: Cytotoxic activity IC50, KB.
Experimental: as §4
Another data set has as its system MCF7-tumor xenograft. Briefly: MCF7 xenograft mouse model. Conditions: 5 mg/kg, twice a week for 3 weeks. The procedure:
The treatment started on the 12th day when the MCF7-tumor size reached approximately 100 mm^3 (L×W×H). Two doses of MV-A (1.0 and 2.0 mg/kg), paclitaxel (5 mg/kg), and vehicle were administered via i.p. (intraperitoneal), i.v. (intravenous), or oral respectively, to the tumor-bearing mice twice a week for 3 weeks ([…]).
Antitumor animal study. All animal studies were approved and performed according to Animal Care and Use Guidelines of the Animal Ethics Committee at Hong Kong Baptist University and performed following Animal Care and Use guidelines set by NIH (National Institute of Health, USA). BALB/c nude mice, SPF class, male or female, 5-6 weeks old, were purchased from Charles River Laboratories. Before the experiment, it is one week of acclimatization to SPF class laboratory conditions. MV-A is tested for its anticancer activity against HCT116 and MCF7 cancer cells using a number of nude mice (Balc/nu/nu, female) in comparison of paclitaxel and maytansine. HCT116 or MCF7 cancer cells are subcutaneously implanted with 5×10^6 cells in the rear flank of each mouse. Female mice receiving MCF-7 cells are implanted with an s.c. pellet of 17β-estradiol (0.72 mg/pellet) a few days prior to injection to induce tumors. […] The mice are divided into 5 groups for HCT116 cancer cells: one high dose (1.0 mg/kg: 10 mice) group of MV-A, one low dose (0.5 mg/kg: 10 mice) group of MV-A, one dose (5.0 mg/kg: 10 mice) of paclitaxel, one dose of maytansine (0.1 mg/kg) and one dose of vehicle (negative control: 10 mice). The mice are then divided into 4 groups for MCF7 cancer cells: one high dose (2.0 mg/kg: 10 mice) group of MV-A, one low dose (1.0 mg/kg: 10 mice) group of MV-A, one dose (5.0 mg/kg: 10 mice) of paclitaxel, and one dose of vehicle (negative control: 10 mice). Every other day administration via i.p. (intraperitoneal), i.v. (intravenous), or oral, respectively are scheduled for 21 days for the HCT116 groups. Twice a week injections administered via i.p. (intraperitoneal), i.v. (intravenous), or oral, respectively are scheduled for […] for the MCF7 groups. Weights of mice and tumor diameters are measured twice a week until the end of the experiment. The tumor size in mm^3 was calculated by the formula: tumor size=length×width×height (L×W×H).

In data set [4] the test system is breast (MCF7) carcinoma cell line. The data set can be described thus: cells. It counts as cell-based, human. Conditions: for IC50: 72 hours, read-out: Cytotoxic activity IC50, MCF7; for IC90: read-out: Cytotoxic activity IC90, MCF7.
Experimental: as §4
The test system of data set [5] is colon cancer cell line (HCT116). Briefly: Hollow fiber in vivo test, HCT116. More on the design: species or system mouse. Particulars: 2.0 mg/kg. The procedure: as §1
In data set [6] the test system is colon (HCT116) carcinoma cell line. The data set can be described thus: Cytotoxicity assay (sulforhodamine B), HCT116. Particulars: for IC50: read-out: Cytotoxic activity IC50, HCT116.
Experimental: as §4
In data set [7] the test system is breast cancer cell line (MCF7). The data set can be described thus: Hollow fiber in vivo test, MCF7. Conditions: 2.0 mg/kg. More on the design: species or system mouse. The procedure:
as §1

In data set [8] the test system is cervical cancer cell line (Hela). The data set can be described thus: Hollow fiber in vivo test, Hela. Particulars: 2.0 mg/kg. More on the design: species or system mouse. The procedure:
as §1

For the next data set, the system named is HCT116-tumor xenograft. The data set can be described thus: HCT116 xenograft mouse model. The data set is classed as in vivo. Conditions: 5 mg/kg, every other day for 21 days. The procedure: The treatment started on the 6th day when the HCT116-tumor reached approximately 100 mm^3 (L×W×W). […] All mice died for the maytansine group after the initial two treatments at the dose of 0.1 mg/kg, indicating the highly toxicity of maytansine.

Data set [9] deals with lung cancer cell line (A549). Briefly: Hollow fiber in vivo test, A549. More on the design: species or system mouse. Particulars: 2.0 mg/kg. As for the experimental part:
as §1

The test system of data set [10] is prostate (LNCaP) carcinoma cell line. The data set can be described thus: cells. The data set is classed as cell-based, human. Particulars: 72 hours, read-out: Cytotoxic activity IC50, LNCaP.
Experimental: as §4
Data set [11] has as its system murine P388 leukemia cells. Conditions: at a concentration of 10 ng/mL.
Data set [12] relates to 3T3-L1 murine adipocytes. The data set can be described thus: 3T3-L1 adipocyte cell viability. Particulars: differentiated 3T3-L1 adipocytes. It counts as cell-based. The procedure:
(§2) MV-A, MV-B, MV-C and MV-D are evaluated for their anti-obesity effects in 3T3-L1 murine adipocytes. 3T3-L1 cells are cultured in the presence of insulin to induce adipocyte differentiation.
(§3) Pure compounds are evaluated against 3T3-L1 cell line for their potential anti-obesity activity. […] After the cells reach 100% confluence, the culture medium is changed to a differentiation DMEM medium containing 10% FCS, […], 0.5 mM 3-isobutyl-1-methylxanthine (IBMX), 90 U/mL penicillin, […] and 10 μg/mL insulin for induction of the adipocyte form of the 3T3-L1 cells. After 2 days, the differentiation medium is changed back to the normal DMEM medium and refreshed with the normal medium every 2 days. After incubation of additional 7 days, the cells are seeded in two sets of 96-well plates (about 10,000 cells per well). The test compounds in different concentrations are then added to the wells with 0.5% aqueous DMSO as control group. After incubation of 7 days, the differentiated 3T3-L1 adipocytes are treated with 2% Triton-X 100 ([…]) for 30 min at room temperature followed by sonication for 1 min. Fat accumulation is determined by measuring the liberated triglyceride using a Wato Triglyceride E-test Kit with the absorbance at 630/690 nm. The fat-accumulation rate is calculated as a percentage of the DMSO control. […] The cell viability of the differentiated 3T3-L1 adipocytes in another 96-well plate is treated with a Wako Cell Counting Kit-8 Test and measured with the absorbance at 450 nm. The cell viability is calculated as a percentage of the control.

In data set [13] the test system is HIV (human immunodeficiency virus).
Data set [14] has as its system panel of cancer cell lines comprising KB, HCT116, LNCaP, A549, MCF7, HL60, Hela and A375. Conditions: at 2 μM.
Data set [15] relates to 3T3-L1 murine adipocytes. The data set can be described thus: 3T3-L1 fat accumulation (triglyceride) assay. Conditions: differentiated 3T3-L1 adipocytes, 7 days, read-out: Anti-obesity activity (fat accumulation) EC50. The data set is classed as cell-based. As for the experimental part:
as §2, §3

The nature of data set [16]: Body weight of mice after drug treatment. Particulars: for Drop of average weight of mice after the first treatment: i.p. injection; for Drop of average weight of mice after six treatments: twice a week.
For data set [17], the system named is 3T3-L1 murine adipocytes. Particulars: literature (Shimokawa et al. 2006); cited from earlier work.

Read-outs that look alike come from different tables or passages of the source. *1 amine or outer side, *2 acyl side, *3 side chain or, on linkers, in order; H or OH if unused. Where a SMILES comes first, the peptide text is derived from it. [ ]: non-standard residue; d: D form. X3 = CC1C(C)C1C(N[*:1])C(=O)[*:2]; dGly(cPr) = N[C@@H](C(=O)O)C1CC1; Gly(cPr) = N[C@H](C(=O)O)C1CC1; NMeL = CN[CH](CC(C)C)C(=O)O; NMeA = CN[CH](C)C(=O)O; dNMeA = CN[C@H](C)C(=O)O

Take `CC(=O)O[C@H]1C(=O)[C@@]2(C)[C@H]([C@H](OC(=O)c3ccccc3)[C@]3(O)C[C@H](OC(=O)[C@H](O)[C@@H](NC(=O)c4ccccc4)c4ccccc4)C(C)=C1C3(C)C)[C@]1(OC(C)=O)CO[C@@H]1C[C@@H]2O` [Paclitaxel, reference compound]: the “Inhibition (%)” value in data set [1] (A375-IP) turned out to be 38.1%; in data set [1] (A375-SC), 7.8%; in data set [5] (HCT116-IP), 60.4%; in data set [5] (HCT116-SC), 0%; in data set [7] (MCF7-IP) it was 70.7%; in data set [7] (MCF7-SC) it was 0%. Besides, the “Inhibition (%)” value in [8] (Hela-IP) came to 69.5%; in data set [8] (Hela-SC), 11.1%; in data set [9] (A549-IP), 39.8%; in data set [9] (A549-SC), 0%. The IC50 is 4.81 nM in data set [2] (Homo sapiens); 3.38 nM in [3] (Homo sapiens); 3.24 nM in data set [4] (Homo sapiens); 5.78 nM in data set [6] (Homo sapiens, HCT-116, 72 h); 15.9 nM in data set [10] (Homo sapiens). Further, the IC90 in data set [2] (Homo sapiens) was over 20 nM; in data set [4] (Homo sapiens), over 30 nM; in data set [6] (Homo sapiens, HCT-116, read-out: Cytotoxic activity IC90, HCT116), over 20 nM. The “Cytotoxic activity IC90, KB” value in data set [3] is given as over 20 nM. In the data set with MCF7-tumor xenograft, the “Inhibition of MCF7 tumor growth (excised tumor weights)” value was 28.2%. For the same compound, in the data set on HCT116-tumor xenograft, the “Inhibition of HCT116 tumor growth (excised tumor weights)” value came to 37.6%.
On to `CC(C)CC1NC(=O)C(C)N(C)C(=O)C(C)N(C)C(=O)C(C2C(C)C2C)NC(=O)C(CC(C)CO)N(C)C(=O)C(C)N(C)C(=O)C(C2C(C)C2C)NC1=O` (centres unmarked) [Compound 2], for which the IC50 came out at 6.35 nM in [2]; 0.79 nM in data set [3]; 5.83 nM in data set [4]; 2.62 nM in data set [6] (HCT116 cells, 72 hours). The IC90 in data set [2] came to 6.84 nM; in data set [4] it was 9.21 nM. Besides, the “Cytotoxic activity IC90, KB” value in data set [3] was found to be 11.4 nM. Also, the “Inhibition of cell growth of murine P388 leukemia cells” value in [11] is on record as 100%.
As for `CC(C)C[C@H]1NC(=O)[C@@H](C)N(C)C(=O)[C@H](C)N(C)C(=O)[C@H](C2CC2)NC(=O)[C@H](CC(C)C)N(C)C(=O)[C@H](C)N(C)C(=O)[C@@H](C2CC2)NC1=O` [MV-D] (cyclo([Gly(cPr)][NMeA][dNMeA][dL][dGly(cPr)][NMeA][NMeL])), the IC50 was over 5000 nM with 3T3-L1 murine adipocytes [12] and 1240 nM in data set [13]. The “Inhibition activity against the cancer cells” value in data set [14] is given as “no inhibition activity”. Moreover, the EC50 with 3T3-L1 murine adipocytes [15] was 13.3 nM.
For the compound `CC(C)CC1NC(=O)C(C)N(C)C(=O)C(C)N(C)C(=O)C(C2C(C)C2C)NC(=O)C(CC(C)C)N(C)C(=O)C(C)N(C)C(=O)C(C2C(C)C2C)NC1=O` (centres unmarked) [Compound 1] (cyclo([X3][NMeA][NMeA]L[X3][NMeA][NMeL]); configuration not given here), the IC50 in data set [2] is 0.24 nM; in [3], 0.05 nM; in data set [4], 0.26 nM; in data set [6] (HCT116 cells, 72 hours), 0.25 nM; in [10], 0.42 nM. Moreover, the IC90 came to 1.02 nM in data set [2]; 1.47 nM in [4]; 0.69 nM in data set [6] (read-out: Cytotoxic activity IC90, HCT116, HCT116 cells). In addition, the “Cytotoxic activity IC90, KB” value in data set [3] turned out to be 1.65 nM. In data set [11], the “Inhibition of cell growth of murine P388 leukemia cells” value amounted to 100%. In addition, in [16] (1 mg/kg and 2 mg/kg), the “Mortality during the treatments” value is “No mice die”. Moreover, the “Toxicity observed from dissection of the mice” value in data set [16] (1 mg/kg and 2 mg/kg) is reported as “No sign of toxicity”. Besides, the “Drop of average weight of mice after the first treatment” value in [16] (1 mg/kg) was found to be 1.5 g; in [16] (2 mg/kg), 2.2 g. Further, the “Drop of average weight of mice after six treatments” value was found to be 1.7 g in [16] (1 mg/kg) and 4.7 g in data set [16] (2 mg/kg).
With Ternatin, in the data set on 3T3-L1 murine adipocytes [17], the “Inhibition of fat accumulation against 3T3-L1 murine adipocytes” value is reported as “potent inhibitor of fat accumulation”.

For orientation: IC50 means the concentration that inhibits the measured activity by half. Broadly, the IC90 is the point of the concentration-response curve where the effect stands at 90%. The term EC50 denotes the concentration that produces a half-maximal response.
